{"source": "PubChem BioAssay AID1963838", "about": "(Molecular Pharmacology Branch, DTP, NCI, 2024);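 further: spheroids exposed to compounds for seven days before readout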", "system": "855422-203-R-J1-PDC complex spheroid viability", "assay": "Anticancer human tumor 855422-203-R-J1-PDC patient-derived bladder carcinoma cell line growth inhibition [POLQ]", "details": "for IC50: curve of first compound; for viability, T/C: stronger effect = lower value", "outline": "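Patient-derived tumour cells were co-cultured with HUVEC and mesenchymal stem cells as multicellular spheroids at 37 °C. They were treated with POLQ inhibitors (novobiocin, ART-558, RP6685) alone or combined with other agents. Top concentrations were at or near clinical Cmax (otherwise 10 microM; SN-38 at 1 microM), decreasing in half-log steps.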", "data": [{"smiles": "CC[C@@]1(O)C(=O)OCc2c1cc1n(c2=O)Cc2cc3c(CN(C)C)c(O)ccc3nc2-1", "note": "+ Cc1cccc(N(C)C(=O)C2C(O)CCN2c2nc(C)cc(C(F)(F)F)c2C#N)c1", "values": [{"measurement": "IC50", "setting": "second compound 0.0316 µM", "result": 29.1, "unit": "nM"}, {"measurement": "IC50", "setting": "second compound 0.1 µM", "result": 32.4, "unit": "nM"}, {"measurement": "IC50", "setting": "second compound 0.316 µM", "result": 28, "unit": "nM"}, {"measurement": "IC50", "setting": "second compound 1 µM", "result": 26.5, "unit": "nM"}, {"measurement": "IC50", "setting": "second compound 3.16 µM", "result": 26.4, "unit": "nM"}, {"measurement": "IC50", "setting": "second compound 10 µM", "result": 23.1, "unit": "nM"}, {"measurement": "viability, T/C", "setting": "second compound 0.0316 µM, first compound 0.000316 µM", "result": 102, "unit": "%"}, {"measurement": "viability, T/C", "setting": "second compound 0.0316 µM, first compound 0.001 µM", "result": 97.4, "unit": "%"}, {"measurement": "viability, T/C", "setting": "second compound 0.0316 µM, first compound 0.00316 µM", "result": 99.8, "unit": "%"}, {"measurement": "viability, T/C", "setting": "second compound 0.0316 µM, first compound 0.01 µM", "result": 82.5, "unit": "%"}, {"measurement": "viability, T/C", "setting": "second compound 0.0316 µM, first compound 0.0316 µM", "result": 47.7, "unit": "%"}, {"measurement": "viability, T/C", "setting": "second compound 0.0316 µM, first compound 0.1 µM", "result": 13.3, "unit": "%"}, {"measurement": "viability, T/C", "setting": "second compound 0.1 µM, first compound 0.000316 µM", "result": 118, "unit": "%"}, {"measurement": "viability, T/C", "setting": "second compound 0.1 µM, first compound 0.001 µM", "result": 104, "unit": "%"}, {"measurement": "viability, T/C", "setting": "second compound 0.1 µM, first compound 0.00316 µM", "result": 99, "unit": "%"}, {"measurement": "viability, T/C", "setting": "second compound 0.1 µM, first compound 0.01 µM", "result": 103, "unit": "%"}, {"measurement": "viability, T/C", "setting": "second compound 0.1 µM, first compound 0.0316 µM", "result": 50.8, "unit": "%"}, {"measurement": "viability, T/C", "setting": "second compound 0.1 µM, first compound 0.1 µM", "result": 13.7, "unit": "%"}, {"measurement": "viability, T/C", "setting": "second compound 0.316 µM, first compound 0.000316 µM", "result": 94.7, "unit": "%"}, {"measurement": "viability, T/C", "setting": "second compound 0.316 µM, first compound 0.001 µM", "result": 105, "unit": "%"}, {"measurement": "viability, T/C", "setting": "second compound 0.316 µM, first compound 0.00316 µM", "result": 97.5, "unit": "%"}, {"measurement": "viability, T/C", "setting": "second compound 0.316 µM, first compound 0.01 µM", "result": 99.5, "unit": "%"}, {"measurement": "viability, T/C", "setting": "second compound 0.316 µM, first compound 0.0316 µM", "result": 44.1, "unit": "%"}, {"measurement": "viability, T/C", "setting": "second compound 0.316 µM, first compound 0.1 µM", "result": 14.1, "unit": "%"}, {"measurement": "viability, T/C", "setting": "second compound 1 µM, first compound 0.000316 µM", "result": 99.7, "unit": "%"}, {"measurement": "viability, T/C", "setting": "second compound 1 µM, first compound 0.001 µM", "result": 96.4, "unit": "%"}, {"measurement": "viability, T/C", "setting": "second compound 1 µM, first compound 0.00316 µM", "result": 116, "unit": "%"}, {"measurement": "viability, T/C", "setting": "second compound 1 µM, first compound 0.01 µM", "result": 89.4, "unit": "%"}, {"measurement": "viability, T/C", "setting": "second compound 1 µM, first compound 0.0316 µM", "result": 43, "unit": "%"}, {"measurement": "viability, T/C", "setting": "second compound 1 µM, first compound 0.1 µM", "result": 12.4, "unit": "%"}, {"measurement": "viability, T/C", "setting": "second compound 3.16 µM, first compound 0.000316 µM", "result": 102, "unit": "%"}, {"measurement": "viability, T/C", "setting": "second compound 3.16 µM, first compound 0.001 µM", "result": 100, "unit": "%"}, {"measurement": "viability, T/C", "setting": "second compound 3.16 µM, first compound 0.00316 µM", "result": 113, "unit": "%"}, {"measurement": "viability, T/C", "setting": "second compound 3.16 µM, first compound 0.01 µM", "result": 94.9, "unit": "%"}, {"measurement": "viability, T/C", "setting": "second compound 3.16 µM, first compound 0.0316 µM", "result": 41.6, "unit": "%"}, {"measurement": "viability, T/C", "setting": "second compound 3.16 µM, first compound 0.1 µM", "result": 11.9, "unit": "%"}, {"measurement": "viability, T/C", "setting": "second compound 10 µM, first compound 0.000316 µM", "result": 97.4, "unit": "%"}, {"measurement": "viability, T/C", "setting": "second compound 10 µM, first compound 0.001 µM", "result": 97.7, "unit": "%"}, {"measurement": "viability, T/C", "setting": "second compound 10 µM, first compound 0.00316 µM", "result": 107, "unit": "%"}, {"measurement": "viability, T/C", "setting": "second compound 10 µM, first compound 0.01 µM", "result": 86.8, "unit": "%"}, {"measurement": "viability, T/C", "setting": "second compound 10 µM, first compound 0.0316 µM", "result": 36, "unit": "%"}, {"measurement": "viability, T/C", "setting": "second compound 10 µM, first compound 0.1 µM", "result": 11.6, "unit": "%"}]}]}
